Tests used:
[1] = target: T1, Beta-secretase 1 (Homo sapiens, UniProt P56817); assay: Inhibition of recombinant human BACE1 using (7-methoxycoumarin-4-yl)acetyl-SEVNL*DAEFRK(2,4-dinitrophenyl)-RR-NH2) as substrate at 0.2 uM by FRET assay
[2] = target: T1, Beta-secretase 1; assay: Inhibition of recombinant human BACE1 using (7-methoxycoumarin-4-yl)acetyl-SEVNL*DAEFRK(2,4-dinitrophenyl)-RR-NH2) as substrate at 2 uM by FRET assay
[3] = target: T1, Beta-secretase 1; assay: Inhibition of recombinant human BACE1 using (7-methoxycoumarin-4-yl)acetyl-SEVNL*DAEFRK(2,4-dinitrophenyl)-RR-NH2) as substrate by FRET assay

T1 sequence (P56817 whole entry): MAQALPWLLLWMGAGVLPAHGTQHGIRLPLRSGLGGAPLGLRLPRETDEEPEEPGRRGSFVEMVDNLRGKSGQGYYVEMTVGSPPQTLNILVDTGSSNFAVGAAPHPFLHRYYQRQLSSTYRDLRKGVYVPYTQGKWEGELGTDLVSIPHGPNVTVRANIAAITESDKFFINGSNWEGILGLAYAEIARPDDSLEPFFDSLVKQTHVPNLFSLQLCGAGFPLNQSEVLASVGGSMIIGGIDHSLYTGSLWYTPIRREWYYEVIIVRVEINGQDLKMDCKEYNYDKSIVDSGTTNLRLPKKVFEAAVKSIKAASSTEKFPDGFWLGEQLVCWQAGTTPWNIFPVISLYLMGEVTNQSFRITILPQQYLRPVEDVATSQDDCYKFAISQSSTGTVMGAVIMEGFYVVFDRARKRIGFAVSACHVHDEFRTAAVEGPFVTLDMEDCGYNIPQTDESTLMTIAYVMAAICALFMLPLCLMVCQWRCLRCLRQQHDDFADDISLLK

Compound | inhibition [1] [%] | inhibition [2] [%] | IC50 [3] [nM]
Cc1cc(C(=O)N[C@@H](Cc2ccccc2)[C@H](O)C(=O)Nc2cccc(-c3nn[nH]n3)c2)nc(C(=O)N2COC[C@@H]2c2ccccc2)c1 | 68 | 95 | –
O=C(N[C@@H](CO)c1ccccc1)c1cc(=O)cc(C(=O)N[C@@H](Cc2ccccc2)[C@H](O)C(=O)Nc2cccc(-c3nn[nH]n3)c2)o1 | – | 11 | –
CCCN(CCC)C(=O)c1cc(=O)cc(C(=O)N[C@@H](Cc2ccccc2)[C@@H](O)C(=O)Nc2cccc(-c3noc(=O)[nH]3)c2)o1 | – | 23 | –
C[C@@H](NC(=O)c1cc(=O)cc(C(=O)N[C@@H](Cc2ccccc2)[C@H](O)C(=O)Nc2cccc(-c3nn[nH]n3)c2)o1)c1ccc([N+](=O)[O-])cc1 | – | 51 | –
CSc1cc(C(=O)N[C@@H](Cc2ccccc2)[C@H](O)C(=O)Nc2cccc(-c3nn[nH]n3)c2)nc(C(=O)N[C@H](C)c2ccccc2)c1 | – | 82 | –
C[C@@H](NC(=O)c1cc(OS(=O)(=O)Cc2ccccc2)cc(C(=O)N[C@@H](Cc2ccccc2)[C@H](O)C(=O)Nc2cccc(-c3nn[nH]n3)c2)n1)c1ccccc1 | – | 29 | –
CCOc1cc(C(=O)N[C@@H](Cc2ccccc2)[C@H](O)C(=O)Nc2cccc(-c3nn[nH]n3)c2)nc(C(=O)N2COC[C@@H]2c2ccccc2)c1 | – | 79 | –
CN(Cc1ccccc1)C(=O)c1cc(=O)cc(C(=O)N[C@@H](Cc2ccccc2)[C@H](O)C(=O)Nc2cccc(-c3nn[nH]n3)c2)o1 | – | 67 | –
CCCN(CCC)C(=O)c1cc(=O)cc(C(=O)N[C@@H](Cc2ccccc2)[C@@H](O)C(=O)Nc2cccc(C(=O)O)c2)o1 | – | 10 | –
[N-]=[N+]=Nc1cc(C(=O)N[C@@H](Cc2ccccc2)[C@H](O)C(=O)Nc2cccc(-c3nn[nH]n3)c2)nc(C(=O)N2COC[C@@H]2c2ccccc2)c1 | 68 | 95 | 79
C[C@@H](NC(=O)c1cc(=O)cc(C(=O)N[C@@H](Cc2ccccc2)[C@H](O)C(=O)Nc2cccc(-c3nn[nH]n3)c2)o1)c1ccc(F)cc1 | – | 76 | –
COc1cc(C(=O)N[C@@H](Cc2ccccc2)[C@H](O)C(=O)Nc2cccc(-c3nn[nH]n3)c2)nc(C(=O)N2COC[C@@H]2c2ccccc2)c1 | 53 | 91 | 151
COc1cc(C(=O)N[C@@H](Cc2ccccc2)[C@H](O)C(=O)Nc2cccc(-c3nn[nH]n3)c2)nc(C(=O)N[C@H](C)c2ccccc2)c1 | – | 73 | –
CSc1cc(C(=O)N[C@@H](Cc2ccccc2)[C@H](O)C(=O)Nc2cccc(-c3nn[nH]n3)c2)nc(C(=O)N2COC[C@@H]2c2ccccc2)c1 | 66 | 95 | 89
CCCN(CCC)C(=O)c1cc(=O)cc(C(=O)N[C@@H](Cc2ccccc2)[C@H](O)C(=O)Nc2cccc(-c3nnn[nH]3)c2)o1 | – | 6 | –
COc1cccc([C@@H](C)NC(=O)c2cc(=O)cc(C(=O)N[C@@H](Cc3ccccc3)[C@H](O)C(=O)Nc3cccc(-c4nn[nH]n4)c3)o2)c1 | – | 48 | –
Nc1cc(C(=O)N[C@@H](Cc2ccccc2)[C@H](O)C(=O)Nc2cccc(-c3nn[nH]n3)c2)nc(C(=O)N2COC[C@@H]2c2ccccc2)c1 | 53 | 78 | –
CC(C)Sc1cc(C(=O)N[C@@H](Cc2ccccc2)[C@H](O)C(=O)Nc2cccc(-c3nn[nH]n3)c2)nc(C(=O)N2COC[C@@H]2c2ccccc2)c1 | – | 72 | –
COc1ccc([C@@H](C)NC(=O)c2cc(=O)cc(C(=O)N[C@@H](Cc3ccccc3)[C@H](O)C(=O)Nc3cccc(-c4nn[nH]n4)c3)o2)cc1 | – | 70 | –
COc1cc(C(=O)N[C@@H](Cc2ccccc2)[C@H](O)C(=O)Nc2cccc(-c3nn[nH]n3)c2)nc(C(=O)NC(C)(C)c2ccccc2)c1 | – | 74 | –
C[C@@H](NC(=O)c1cc(=O)cc(C(=O)N[C@@H](Cc2ccccc2)[C@H](O)C(=O)Nc2cccc(-c3nn[nH]n3)c2)o1)c1cccc(F)c1 | – | 62 | –

Now from value to compound:

inhibition [1] [%] | inhibition [2] [%] | IC50 [3] [nM] | Compound
– | 13 | – | O=C(NC(c1ccccc1)c1ccccc1)c1cc(=O)cc(C(=O)N[C@@H](Cc2ccccc2)[C@H](O)C(=O)Nc2cccc(-c3nn[nH]n3)c2)o1
– | 54 | – | Cc1ccc([C@@H](C)NC(=O)c2cc(=O)cc(C(=O)N[C@@H](Cc3ccccc3)[C@H](O)C(=O)Nc3cccc(-c4nn[nH]n4)c3)o2)cc1
– | 46 | – | CCOc1cc(C(=O)N[C@@H](Cc2ccccc2)[C@H](O)C(=O)Nc2cccc(-c3nn[nH]n3)c2)nc(C(=O)N[C@H](C)c2ccccc2)c1
– | 64 | – | CCCOc1cc(C(=O)N[C@@H](Cc2ccccc2)[C@H](O)C(=O)Nc2cccc(-c3nn[nH]n3)c2)nc(C(=O)N2COC[C@@H]2c2ccccc2)c1
– | 60 | – | CCCN(CCC)C(=O)c1cc(=O)cc(C(=O)N[C@@H](Cc2ccccc2)[C@@H](O)C(=O)Nc2cccc(-c3nnn[nH]3)c2)o1
– | 26 | – | C[C@@H](NC(=O)c1cc(=O)cc(C(=O)N[C@@H](Cc2ccccc2)[C@H](O)C(=O)Nc2cccc(-c3nn[nH]n3)c2)o1)C1CCCCC1
– | 75 | – | CN(c1cc(C(=O)N[C@@H](Cc2ccccc2)[C@H](O)C(=O)Nc2cccc(-c3nn[nH]n3)c2)nc(C(=O)N2COC[C@@H]2c2ccccc2)c1)S(C)(=O)=O
– | 42 | – | CCOc1cc(C(=O)N[C@@H](Cc2ccccc2)[C@H](O)C(=O)Nc2cccc(-c3nn[nH]n3)c2)nc(C(=O)NC(C)(C)c2ccccc2)c1
– | 61 | – | C[C@@H](NC(=O)c1cc(=O)cc(C(=O)N[C@@H](Cc2ccccc2)[C@H](O)C(=O)Nc2cccc(-c3nn[nH]n3)c2)o1)c1ccc(Cl)cc1
– | 29 | – | O=C(N[C@@H](Cc1ccccc1)[C@H](O)C(=O)Nc1cccc(-c2nn[nH]n2)c1)c1cc(=O)cc(C(=O)N(Cc2ccccc2)Cc2ccccc2)o1
– | 25 | – | O=C(NCc1ccccc1)c1cc(=O)cc(C(=O)N[C@@H](Cc2ccccc2)[C@H](O)C(=O)Nc2cccc(-c3nn[nH]n3)c2)o1
– | 25 | – | C[C@H](NC(=O)c1cc(=O)cc(C(=O)N[C@@H](Cc2ccccc2)[C@H](O)C(=O)Nc2cccc(-c3nn[nH]n3)c2)o1)c1ccccc1
– | 32 | – | CC[C@@H](NC(=O)c1cc(=O)cc(C(=O)N[C@@H](Cc2ccccc2)[C@H](O)C(=O)Nc2cccc(-c3nn[nH]n3)c2)o1)c1ccccc1
– | 21 | – | CN(NC(=O)c1cc(=O)cc(C(=O)N[C@@H](Cc2ccccc2)[C@H](O)C(=O)Nc2cccc(-c3nn[nH]n3)c2)o1)c1ccccc1
– | 85 | – | CSc1cc(C(=O)N[C@@H](Cc2ccccc2)[C@H](O)C(=O)Nc2cccc(-c3nn[nH]n3)c2)nc(C(=O)NC(C)(C)c2ccccc2)c1
